Values of other authors as cited in article PMC9516332 (Frontiers in Oncology, 2022).

Columns and labels:
[1] = target: panel of 255 wild-type kinases (Homo sapiens, UniProt P49761); settings: kinase CLK3; 1 µmol/L single concentration; ref DOI: 10.1371/journal.pone.0092146; cited from earlier work
[2] = target: panel of 255 wild-type kinases (Homo sapiens, UniProt P05771); settings: kinase PKCβ1; 1 µmol/L single concentration; ref DOI: 10.1371/journal.pone.0092146; cited from earlier work
[3] = target: panel of 255 wild-type kinases (Homo sapiens, UniProt Q9Y6E0); settings: MST3; 1 µmol/L single concentration; ref DOI: 10.1371/journal.pone.0092146; cited from earlier work
[4] = target: panel of 255 wild-type kinases (Homo sapiens, UniProt P08069); settings: kinase IGF1R; 1 µmol/L single concentration; ref DOI: 10.1371/journal.pone.0092146; cited from earlier work
[5] = target: panel of 255 wild-type kinases (Homo sapiens, UniProt P00519); settings: ABL kinase assay; 1 µmol/L single concentration; ref DOI: 10.1371/journal.pone.0092146; cited from earlier work
[6] = target: panel of 255 wild-type kinases (Homo sapiens, UniProt Q00535); settings: CDK5/p25 kinase assay; 1 µmol/L single concentration; ref DOI: 10.1371/journal.pone.0092146; cited from earlier work
[7] = target: T1, panel of 255 wild-type kinases (Homo sapiens, UniProt Q13043); settings: MST1; 1 µmol/L single concentration; ref DOI: 10.1371/journal.pone.0092146; cited from earlier work
T1 sequence (Q13043 1-487): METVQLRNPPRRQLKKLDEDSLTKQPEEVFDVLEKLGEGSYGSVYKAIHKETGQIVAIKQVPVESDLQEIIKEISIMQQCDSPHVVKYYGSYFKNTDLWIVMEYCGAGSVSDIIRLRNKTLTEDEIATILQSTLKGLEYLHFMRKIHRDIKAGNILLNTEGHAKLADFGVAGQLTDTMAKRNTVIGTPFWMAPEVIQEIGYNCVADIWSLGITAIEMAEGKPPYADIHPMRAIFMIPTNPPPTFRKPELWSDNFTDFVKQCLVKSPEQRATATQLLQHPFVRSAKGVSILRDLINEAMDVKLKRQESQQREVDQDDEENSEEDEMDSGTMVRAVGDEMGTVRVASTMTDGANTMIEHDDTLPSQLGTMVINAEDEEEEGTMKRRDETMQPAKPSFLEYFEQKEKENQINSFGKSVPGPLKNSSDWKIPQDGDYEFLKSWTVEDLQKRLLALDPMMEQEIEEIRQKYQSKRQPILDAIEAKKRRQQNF

[8] = target: panel of 255 wild-type kinases (Homo sapiens, UniProt P11309); settings: kinase PIM1; 1 µmol/L single concentration; ref DOI: 10.1371/journal.pone.0092146; cited from earlier work
[9] = target: panel of 255 wild-type kinases (Homo sapiens, UniProt P23443); settings: p70S6K; 1 µmol/L single concentration; ref DOI: 10.1371/journal.pone.0092146; cited from earlier work
[10] = target: panel of 255 wild-type kinases (Homo sapiens, UniProt P07332); settings: kinase FES; 1 µmol/L single concentration; ref DOI: 10.1371/journal.pone.0092146; cited from earlier work
[11] = target: T2, panel of 255 wild-type kinases (Homo sapiens, UniProt Q9BZL6); settings: kinase PKD2; 1 µmol/L single concentration; ref DOI: 10.1371/journal.pone.0092146; cited from earlier work
T2 sequence (Q9BZL6 1-878): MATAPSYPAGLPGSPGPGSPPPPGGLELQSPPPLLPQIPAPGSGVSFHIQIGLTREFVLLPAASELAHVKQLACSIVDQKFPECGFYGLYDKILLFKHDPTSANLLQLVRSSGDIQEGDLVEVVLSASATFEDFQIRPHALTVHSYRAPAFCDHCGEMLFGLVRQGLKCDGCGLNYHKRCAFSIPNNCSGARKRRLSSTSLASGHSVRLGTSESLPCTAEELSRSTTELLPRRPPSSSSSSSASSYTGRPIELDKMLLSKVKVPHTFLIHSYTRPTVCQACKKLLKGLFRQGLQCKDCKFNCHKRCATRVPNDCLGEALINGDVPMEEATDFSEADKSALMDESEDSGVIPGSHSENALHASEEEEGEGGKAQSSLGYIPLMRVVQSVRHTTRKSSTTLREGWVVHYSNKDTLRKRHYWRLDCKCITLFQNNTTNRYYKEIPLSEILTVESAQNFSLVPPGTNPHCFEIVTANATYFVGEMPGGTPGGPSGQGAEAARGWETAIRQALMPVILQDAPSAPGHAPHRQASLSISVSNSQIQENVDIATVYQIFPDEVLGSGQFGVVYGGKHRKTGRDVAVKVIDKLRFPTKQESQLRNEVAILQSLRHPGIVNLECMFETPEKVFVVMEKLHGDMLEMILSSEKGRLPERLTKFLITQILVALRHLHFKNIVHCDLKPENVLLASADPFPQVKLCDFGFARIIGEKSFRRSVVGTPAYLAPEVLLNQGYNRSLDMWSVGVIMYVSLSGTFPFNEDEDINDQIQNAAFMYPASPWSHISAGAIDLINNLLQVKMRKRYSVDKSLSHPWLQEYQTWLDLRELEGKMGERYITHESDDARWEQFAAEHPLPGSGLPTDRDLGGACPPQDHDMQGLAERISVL

CC(=O)Nc1cccc(-n2c(=O)n(C3CC3)c(=O)c3c(Nc4ccc(I)cc4F)n(C)c(=O)c(C)c32)c1 [trametinib]
%-inhibition at 1 µmol/L, CLK3 [1]: -0.0684%
%-inhibition at 1 µmol/L, PKCβ1 [2]: -3.47%
%-inhibition, MST3 [3]: 1.75%
%-inhibition at 1 µmol/L, IGF1R [4]: -10%
%-inhibition ABL [5]: -8%
%-inhibition CDK5/p25 [6]: 19%
%-inhibition, MST1 [7]: -3.74%
%-inhibition at 1 µmol/L, PIM1 [8]: 4.44%
%-inhibition, p70S6K [9]: -1.39%
%-inhibition at 1 µmol/L, FES [10]: -1.55%
%-inhibition at 1 µmol/L, PKD2 [11]: -3.28%
